From patent publication US6479435B1, “Diaryl ethers and processes for their preparation and herbicidal and desiccant compositions containing them” (ISK Americas Incorporated, priority 1997, dated 2002)

Experiments:
Assay type in all cases: in vivo
[1] = system: soybean (Glycine max L., var. Pella 86, SOY); test: Pre-emerge greenhouse test, crop damage rating; settings: 14 days after application, rating scale 0-100
Excerpt: (§1) A standard greenhouse herbicide activity screening system was used to evaluate the herbicidal efficacy and crop safety of these test compounds. Six broadleaf weed species including redroot pigweed (Amaranthus retroflexus, AMARE), velvetleaf (Abutilon theophrasti, ABUTH), sicklepod (Cassia obtusifolia, CASOB), ivyleaf morningglory (Ipomoea hederacea, IPOHE), lambsquarters (Chenopodium album, CHEAL) and common ragweed (Ambrosia artemisiifolia L., AMBEL) were used as test species. Four grass weed species including green foxtail (Setaria viridis, SETVI), barnyardgrass (Echinochloa crusgalli, ECHCG), Johnsongrass (Sorghum halepense, SORHA), and large crabgrass (Digitaria sanguinalis, DIGSA) were also used. In addition, three crop species, field corn (Zea mays L., var. Dekalb 535, CORN), soybean (Glycine max L., var. Pella 86, SOY), and upland rice (Oryza sp., var.Tebonnet, RICE) were included.
(§2) All plants were grown in 10 cm square plastic pots which were filled with a sandy loam soil mix. For preemerge tests, seeds were planted one day prior to application of the test compounds. Immediately after application, test units of the pre-emerge applications were watered at the soil surface to incorporate the test materials. Subsequently, these test units were bottom-watered.
(§3) All test compounds were dissolved in acetone and applied to the test units in a volume of 187 l/ha. Test materials were applied at rates ranging from 125 g ai/ha to 1000 g ai/ha using a track sprayer equipped with a TJ8001E even flow flat fan spray nozzle. Plants were arranged on a shelf so that the top of the canopy (post-emerge) or top of the soil surface (pre-emerge) was 40-45 cm below the nozzle. Pressurized air was used to force the test solution through the nozzle as it was mechanically advanced (via electrically driven chain drive) over the top of all test plants/pots. This application simulates a typical commercial field herbicide application.
(§4) At 14 days after application of the test materials, phytotoxicity ratings were recorded. A rating scale of 0-100 was used as previously described in Research Methods in Weed Science, 2nd edition, B. Truelove, Ed., Southern Weed Science Society, Auburn University, Auburn, Ala., 1977. Briefly, “0” corresponds to no damage and “100” corresponds to complete death of all plants in the test unit. This scale was used both to determine efficacy against weed species and damage to crop species. Herbicide activity data for various compounds of this invention, which are shown by compound number in Tables 1-9, are shown in Tables 13 and 14.

[2] = system: field corn (Zea mays L., var. Dekalb 535, CORN); test: Pre-emerge greenhouse test, crop damage rating; settings: 14 days after application, rating scale 0-100
Excerpt: as §1, §2, §3, §4

[3] = system: upland rice (Oryza sp., var.Tebonnet, RICE); test: Pre-emerge greenhouse test, crop damage rating; settings: 14 days after application, rating scale 0-100
Excerpt: as §1, §2, §3, §4

[4] = system: field corn (Zea mays L., var. Dekalb 535, CORN); test: Post-emerge greenhouse test, crop damage rating; settings: 14 days after application
Excerpt: as §1, §3
(§5) In the post-emerge test, a commercial non-ionic surfactant was also included (0.25% v/v) to enhance wetting of the leaf surfaces Qf target plants at rates ranging from 63 g ai/ha to 1000 g ai/ha. For post-emerge tests, seeds were planted 8-21 days prior to the test to allow emergence and good foliage development prior to application of the test substances. At the time of the post-emerge application, plants of all species were usually at the 2-3 leaf stage of development. Post-emerge test units were always bottom-watered.
as §4

[5] = system: upland rice (Oryza sp., var.Tebonnet, RICE); test: Post-emerge greenhouse test, crop damage rating; settings: 14 days after application
Excerpt: as §1, §3, §5, §4

[6] = system: soybean (Glycine max L., var. Pella 86, SOY); test: Post-emerge greenhouse test, crop damage rating; settings: 14 days after application
Excerpt: as §1, §3, §5, §4

[7] = system: ivyleaf morningglory (Ipomoea hederacea, IPOHE); test: Post-emerge greenhouse herbicide test, phytotoxicity rating; settings: 14 days after application
Excerpt: as §1, §3, §5, §4

[8] = system: lambsquarters (Chenopodium album, CHEAL); test: as above; settings: 14 days after application
Excerpt: as §1, §3, §5, §4

[9] = system: velvetleaf (Abutilon theophrasti, ABUTH); test: as above; settings: 14 days after application
Excerpt: as §1, §3, §5, §4

[10] = system: barnyardgrass (Echinochloa crusgalli, ECHCG); test: as above; settings: 14 days after application
Excerpt: as §1, §3, §5, §4

[11] = system: Johnsongrass (Sorghum halepense, SORHA); test: as above; settings: 14 days after application
Excerpt: as §1, §3, §5, §4

[12] = system: green foxtail (Setaria viridis, SETVI); test: as above; settings: 14 days after application
Excerpt: as §1, §3, §5, §4

[13] = system: sicklepod (Cassia obtusifolia, CASOB); test: as above; settings: 14 days after application
Excerpt: as §1, §3, §5, §4

[14] = system: redroot pigweed (Amaranthus retroflexus, AMARE); test: as above; settings: 14 days after application
Excerpt: as §1, §3, §5, §4

[15] = system: large crabgrass (Digitaria sanguinalis, DIGSA); test: as above; settings: 14 days after application
Excerpt: as §1, §3, §5, §4

[16] = system: ivyleaf morningglory (Ipomoea hederacea, IPOHE); test: Pre-emerge greenhouse herbicide test, phytotoxicity rating; settings: 14 days after application, rating scale 0-100
Excerpt: as §1, §2, §3, §4

[17] = system: lambsquarters (Chenopodium album, CHEAL); test: as above; settings: 14 days after application, rating scale 0-100
Excerpt: as §1, §2, §3, §4

[18] = system: velvetleaf (Abutilon theophrasti, ABUTH); test: as above; settings: 14 days after application, rating scale 0-100
Excerpt: as §1, §2, §3, §4

[19] = system: barnyardgrass (Echinochloa crusgalli, ECHCG); test: as above; settings: 14 days after application, rating scale 0-100
Excerpt: as §1, §2, §3, §4

[20] = system: Johnsongrass (Sorghum halepense, SORHA); test: as above; settings: 14 days after application, rating scale 0-100
Excerpt: as §1, §2, §3, §4

[21] = system: green foxtail (Setaria viridis, SETVI); test: as above; settings: 14 days after application, rating scale 0-100
Excerpt: as §1, §2, §3, §4

[22] = system: sicklepod (Cassia obtusifolia, CASOB); test: as above; settings: 14 days after application, rating scale 0-100
Excerpt: as §1, §2, §3, §4

[23] = system: redroot pigweed (Amaranthus retroflexus, AMARE); test: as above; settings: 14 days after application, rating scale 0-100
Excerpt: as §1, §2, §3, §4

[24] = system: large crabgrass (Digitaria sanguinalis, DIGSA); test: as above; settings: 14 days after application, rating scale 0-100
Excerpt: as §1, §2, §3, §4

For `CS(=O)(=O)Nc1ccc(Oc2cc(-n3c(=O)cc4n(c3=O)CCC4)c(F)cc2Cl)cc1` [Compound 5-5], the “crop damage rating SOY” value ([1]; 500 g ai/ha) was 10, the “crop damage rating CORN” value ([2]; 500 g ai/ha) was 0 and the “crop damage rating RICE” value ([3]; 500 g ai/ha) was 0. For the same compound, the “CORN crop damage rating (0-100)” value ([4]; 500 g al/ha) was 0, the “RICE crop damage rating (0-100)” value ([5]; 500 g al/ha) was 0 and the “SOY crop damage rating (0-100)” value ([6]; 500 g al/ha) was 0. The “IPOHE phytotoxicity rating (0-100)” value ([7]; 500 g al/ha) was 0, the “CHEAL phytotoxicity rating (0-100)” value ([8]; 500 g al/ha) was 0 and the “ABUTH phytotoxicity rating (0-100)” value ([9]; 500 g al/ha) was 0. The “ECHCG phytotoxicity rating (0-100)” value ([10]; 500 g al/ha) was 0, the “SORHA phytotoxicity rating (0-100)” value ([11]; 500 g al/ha) was 0 and the “SETVI phytotoxicity rating (0-100)” value ([12]; 500 g al/ha) was 0. For the same compound, the “CASOB phytotoxicity rating (0-100)” value ([13]; 500 g al/ha) was 0, the “AMARE phytotoxicity rating (0-100)” value ([14]; 500 g al/ha) was 0 and the “DIGSA phytotoxicity rating (0-100)” value ([15]; 500 g al/ha) was 0. The “phytotoxicity rating IPOHE” value ([16]; 500 g ai/ha) was 0, the “phytotoxicity rating CHEAL” value ([17]; 500 g ai/ha) was 100 and the “phytotoxicity rating ABUTH” value ([18]; 500 g ai/ha) was 50. For the same compound, the “phytotoxicity rating ECHCG” value ([19]; 500 g ai/ha) was 0, the “phytotoxicity rating SORHA” value ([20]; 500 g ai/ha) was 0 and the “phytotoxicity rating SETVI” value ([21]; 500 g ai/ha) was 0. For the same compound, the “phytotoxicity rating CASOB” value ([22]; 500 g ai/ha) was 0, the “phytotoxicity rating AMARE” value ([23]; 500 g ai/ha) was 95 and the “phytotoxicity rating DIGSA” value ([24]; 500 g ai/ha) was 0.

With `O=c1cc2n(c(=O)n1-c1cc(Oc3ncccc3C(F)(F)F)c(Cl)cc1F)CCC2` [Compound 5-10, 2-[4-chloro-2-fluoro-5-(3-trifluoromethyl-2-pyridyloxy)phenyl]-6,7-dihydropyrrolo[1,2-c]pyrimidine-1,3(2H,5H)dione] the “IPOHE phytotoxicity rating (0-100)” value ([7]; 1000 g al/ha) was 70, the “CHEAL phytotoxicity rating (0-100)” value ([8]; 1000 g al/ha) was 80 and the “ABUTH phytotoxicity rating (0-100)” value ([9]; 1000 g al/ha) was 100. For the same compound, the “ECHCG phytotoxicity rating (0-100)” value ([10]; 1000 g al/ha) was 80, the “SORHA phytotoxicity rating (0-100)” value ([11]; 1000 g al/ha) was 70 and the “SETVI phytotoxicity rating (0-100)” value ([12]; 1000 g al/ha) was 20. For the same compound, the “CASOB phytotoxicity rating (0-100)” value ([13]; 1000 g al/ha) was 30, the “AMARE phytotoxicity rating (0-100)” value ([14]; 1000 g al/ha) was 80 and the “DIGSA phytotoxicity rating (0-100)” value ([15]; 1000 g al/ha) was 10. The “phytotoxicity rating IPOHE” value ([16]; 1000 g ai/ha) was 100, the “phytotoxicity rating CHEAL” value ([17]; 1000 g ai/ha) was 100 and the “phytotoxicity rating ABUTH” value ([18]; 1000 g ai/ha) was 100. The “phytotoxicity rating ECHCG” value ([19]; 1000 g ai/ha) was 100, the “phytotoxicity rating SORHA” value ([20]; 1000 g ai/ha) was 100 and the “phytotoxicity rating SETVI” value ([21]; 1000 g ai/ha) was 100. For the same compound, the “phytotoxicity rating CASOB” value ([22]; 1000 g ai/ha) was 0, the “phytotoxicity rating AMARE” value ([23]; 1000 g ai/ha) was 100 and the “phytotoxicity rating DIGSA” value ([24]; 1000 g ai/ha) was 100.

`N#Cc1ccc(Oc2cc(-n3c(=O)cc4n(c3=O)CCC4)c(F)cc2Cl)nc1` [Compound 5-11] was tested, and the “crop damage rating SOY” value ([1]; 1000 g ai/ha) was 60, the “crop damage rating CORN” value ([2]; 1000 g ai/ha) was 30 and the “crop damage rating RICE” value ([3]; 1000 g ai/ha) was 80. For the same compound, the “CORN crop damage rating (0-100)” value ([4]; 1000 g al/ha) was 15, the “RICE crop damage rating (0-100)” value ([5]; 1000 g al/ha) was 25 and the “SOY crop damage rating (0-100)” value ([6]; 1000 g al/ha) was 40. The “IPOHE phytotoxicity rating (0-100)” value ([7]; 1000 g al/ha) was 90, the “CHEAL phytotoxicity rating (0-100)” value ([8]; 1000 g al/ha) was 90 and the “ABUTH phytotoxicity rating (0-100)” value ([9]; 1000 g al/ha) was 100. The “ECHCG phytotoxicity rating (0-100)” value ([10]; 1000 g al/ha) was 20, the “SORHA phytotoxicity rating (0-100)” value ([11]; 1000 g al/ha) was 20 and the “SETVI phytotoxicity rating (0-100)” value ([12]; 1000 g al/ha) was 10. For the same compound, the “CASOB phytotoxicity rating (0-100)” value ([13]; 1000 g al/ha) was 10, the “AMARE phytotoxicity rating (0-100)” value ([14]; 1000 g al/ha) was 70 and the “DIGSA phytotoxicity rating (0-100)” value ([15]; 1000 g al/ha) was 0. The “phytotoxicity rating IPOHE” value ([16]; 1000 g ai/ha) was 80, the “phytotoxicity rating CHEAL” value ([17]; 1000 g ai/ha) was 100 and the “phytotoxicity rating ECHCG” value ([19]; 1000 g ai/ha) was 95. For the same compound, the “phytotoxicity rating SORHA” value ([20]; 1000 g ai/ha) was 99, the “phytotoxicity rating SETVI” value ([21]; 1000 g ai/ha) was 95 and the “phytotoxicity rating CASOB” value ([22]; 1000 g ai/ha) was 30. The “phytotoxicity rating AMARE” value ([23]; 1000 g ai/ha) was 80 and the “phytotoxicity rating DIGSA” value ([24]; 1000 g ai/ha) was 90.
